Like-named read-outs stand apart in the source and are kept apart here.
Tests used:
[1] = tested on: human diffuse large B-cell lymphoma (DLBCL) cell line OCI-Ly7; experiment: In vitro cell growth inhibition test, OCI-Ly7 (cell viability, combination index); type: cell-based; conditions: compound A 0 nM, OCI-Ly7
[2] = tested on: human diffuse large B-cell lymphoma cell line OCI-Ly7; type: in vivo
[3] = tested on: human follicular lymphoma cell line DOHH-2; experiment: In vitro cell growth inhibition test (CellTiter-Fluor), DOHH-2; type: cell-based; conditions: for IC50: Homo sapiens, DOHH-2, 120 h; for FIC (fractional inhibitory concentration): DOHH-2
[4] = tested on: human diffuse large B-cell lymphoma cell line OCI-Ly7; type: in vivo; remark: listed apart in the source
[5] = tested on: human acute myelogenous leukemia (AML) cell line KG-1; type: in vivo
[6] = tested on: human acute myelogenous leukemia (AML) cell line KG-1; type: in vivo; remark: listed apart in the source
[7] = tested on: human breast cancer cell line MDA-MB-453; experiment: In vivo antitumor effect test, MDA-MB-453 tumor, compound A and lapatinib (Example 37); set-up: species or system NOD-SCID mice
Method: The tumor volume was calculated from tumor diameters by the following formula: (Long diameter×[Short diameter]^2×0.5). Using the calculated tumor volume value, the relative tumor volume (ratio of the tumor volume on the day of measurement to the baseline tumor volume on Day 1) was calculated. […] Further, the tumor growth delay rate (% TGD) was calculated according to the following formula: % TGD={(T−C)/C}×100, Where: • T: […] relative tumor volume of the control group to reach 1600% 6) Statistical Analysis
Compound A was suspended in a 1% hypromellose solution to prepare 20 mg/mL test substance suspensions (a suspension for preparing a single administration solution and a suspension for preparing a 100 mg/kg combined administration solution). The 20 mg/mL test substance suspensions were diluted with a 1% hypromellose solution to prepare 10 mg/mL (100 mg/kg administration solution), 6 mg/mL (suspension for preparing a 30 mg/kg combined administration solution), and 3 mg/mL (30 mg/kg administration solution) test substance suspensions. Lapatinib was suspended in a 1% hypromellose solution to prepare a 20 mg/mL suspension for preparing a 100 mg/kg lapatinib combined administration solution. The 20 mg/mL suspension was diluted with a 1% hypromellose solution to prepare a 10 mg/mL suspension for 100 mg/kg single administration. The administration solution of the combination group was prepared by mixing the 6 mg/mL compound A suspension and the 20 mg/mL lapatinib suspension at 1:1, or mixing the 20 mg/mL compound A suspension and the 20 mg/mL lapatinib suspension at 1:1.
MDA-MB-453 was obtained from ATCC. […] The collected cells were suspended in serum-free RPMI 1640 medium at 1.0×10^8 cells/mL.
5-week-old female NOD-SCID mice (NOD.CB17-Prkdcscid/J, produced by Charles River Japan Co., Ltd.) were used. The female NOD-SCID mice were bred in the same manner as in Example 36. The cell suspension was inoculated at 2×10^7 cells/body into the subcutaneous space of the right axillary region of the 6-week-old NOD-SCID mice, and the mice were grouped in the same manner as in Example 36 using the tumor volume as an index.
The administration was started on the next day of the grouping (Day 2), and compound A and lapatinib were orally administered once a day for 28 consecutive days. Each group (N=8) was treated as follows. • (1) Control (solvent control) group: 1% hypromellose solution • (2) Compound A (30 mg/kg) treated group: 30 mg/kg of compound A (oral administration once a day for 28 consecutive days) • (3) Compound A (100 mg/kg) treated group: 100 mg/kg of compound A (oral administration once a day for 28 consecutive days) • (4) Lapatinib (100 mg/kg) treated group: 100 mg/kg of lapatinib (oral administration once a day for 28 consecutive days) • (5) Combination group 1: 30 mg/kg of compound A (oral administration once a day for 28 consecutive days)+100 mg/kg of lapatinib (oral administration once a day for 28 consecutive days) • (6) Combination group 2: 100 mg/kg of compound A (oral administration once a day for 28 consecutive days)+100 mg/kg of lapatinib (oral administration once a day for 28 consecutive days)

[8] = tested on: human diffuse large B-cell lymphoma cell line OCI-Ly7; type: in vivo; remark: listed apart in the source
[9] = bendamustine 15 mg/kg intraperitoneally on Days 2, 3, 4, 5, 6, relative tumor volume 1600%
[10] = cyclophosphamide 50 mg/kg intraperitoneally on Days 2, 5, 9, 12, relative tumor volume 1600%
[11] = lapatinib 100 mg/kg orally once a day for 28 days, relative tumor volume 200%
[12] = rituximab 10 mg/kg intraperitoneally on Days 2, 9, 16, relative tumor volume 600%

Cn1c(CCCC(=O)O)nc2cc(N(CCCl)CCCl)ccc21 [Bendamustine]
Cell viability (ratio relative to the drug-free control) ([1]; bendamustine 1.25 nM): 0.93 | Cell viability (ratio relative to the drug-free control) ([1]; bendamustine 2.5 nM): 0.87 | Cell viability (ratio relative to the drug-free control) ([1]; bendamustine 5 nM): 0.66 | Cell viability (ratio relative to the drug-free control) ([1]; bendamustine 10 nM): 0.29 | effectiveness of monotherapy (tumor growth delay) ([2]; 30 mg/kg of compound A, 15 mg/kg of bendamustine): effective | Median Time (time for relative tumor volume to reach 1600%) ([2]; bendamustine 15 mg/kg intraperitoneally on Days 2, 3, 4, 5, 6): 24.3 days | Tumor growth delay [2, 9]: 8.8 days | Tumor growth delay rate [2, 9]: 56.5% | IC50 ([3]; read-out: IC50 value of bendamustine in each concentration of compound A, compound A 0 nM (bendamustine alone), DOHH-2, 1000 cells/well, 120 hours): 9.87 µM | IC50 ([3]; read-out: IC50 value of bendamustine in each concentration of compound A, compound A 39.1 nM, DOHH-2, 120 hours): 5.59 µM | IC50 ([3]; read-out: IC50 value of bendamustine in each concentration of compound A, compound A 78.1 nM, DOHH-2, 120 hours): 2.96 µM | IC50 ([3]; read-out: IC50 value of bendamustine in each concentration of compound A, compound A 156.3 nM, DOHH-2, 120 hours): 1.5 µM | IC50 ([3]; read-out: IC50 value of bendamustine in each concentration of compound A, compound A 312.5 nM, DOHH-2, 120 hours): 0.0405 µM | FIC (fractional inhibitory concentration) ([3]; bendamustine fixed at 0 nM, compound A at its IC50): 0 | FIC (fractional inhibitory concentration) ([3]; bendamustine fixed at 1250 nM, compound A at its IC50): 0.127 | FIC (fractional inhibitory concentration) ([3]; bendamustine fixed at 2500 nM, compound A at its IC50): 0.253 | FIC (fractional inhibitory concentration) ([3]; bendamustine fixed at 5000 nM, compound A at its IC50): 0.506 | FIC (fractional inhibitory concentration) ([3]; compound A fixed at 0 nM, bendamustine at its IC50): 1 | FIC (fractional inhibitory concentration) ([3]; compound A fixed at 39.1 nM, bendamustine at its IC50): 0.566 | FIC (fractional inhibitory concentration) ([3]; compound A fixed at 78.1 nM, bendamustine at its IC50): 0.300 | FIC (fractional inhibitory concentration) ([3]; compound A fixed at 156.3 nM, bendamustine at its IC50): 0.152 | FIC (fractional inhibitory concentration) ([3]; compound A fixed at 312.5 nM, bendamustine at its IC50): 0.004

O=P1(N(CCCl)CCCl)NCCCO1 (centres unmarked) [Cyclophosphamide, reference compound]
effectiveness of monotherapy (tumor growth delay) ([4]; 30 or 100 mg/kg of compound A, 50 mg/kg of cyclophosphamide): effective | Median Time (time for relative tumor volume to reach 1600%) ([4]; cyclophosphamide 50 mg/kg intraperitoneally on Days 2, 5, 9, 12): 23.4 days | Tumor growth delay [4, 10]: 10.7 days | Tumor growth delay rate [4, 10]: 83.9%

Nc1ccn([C@@H]2O[C@H](CO)[C@@H](O)[C@@H]2O)c(=O)n1 [Cytarabine, reference compound]
antitumor effect on KG-1 tumor (monotherapy) ([5]; compound A 30 mg/kg, cytarabine 50 mg/kg): antitumor effect | T/C (ratio of relative tumor volume of treated group to control group) ([5]; cytarabine monotherapy 50 mg/kg intraperitoneally, 5-day administration and 2-day cessation, Day 16): 62.3%

Nc1ncn([C@H]2C[C@H](O)[C@@H](CO)O2)c(=O)n1 [Decitabine, 5-aza-2′-deoxycytidine, reference compound]
antitumor effect on KG-1 tumor (monotherapy) ([6]; compound A 30 mg/kg, decitabine 1 mg/kg): antitumor effect | T/C (ratio of relative tumor volume of treated group to control group) ([6]; decitabine monotherapy 1 mg/kg intraperitoneally, twice a week, Day 23): 27.7%

CS(=O)(=O)CCNCc1ccc(-c2ccc3ncnc(Nc4ccc(OCc5cccc(F)c5)c(Cl)c4)c3c2)o1 [Lapatinib, reference compound]
effectiveness of monotherapy (tumor growth delay) ([7]; 30 or 100 mg/kg of compound A, 100 mg/kg of lapatinib): effective | Median Time (time for relative tumor volume to reach 200%) ([7]; lapatinib 100 mg/kg orally once a day for 28 days): 34.2 days | Tumor growth delay [7, 11]: 11.4 days | Tumor growth delay rate [7, 11]: 50.0%

Rituximab: anti-CD20 antibody; Rituxan (trademark) 100 mg/10 mL, purchased from Genentech [reference compound]
effectiveness of monotherapy (tumor growth delay) ([8]; 30 mg/kg of compound A, 10 mg/kg of rituximab): effective | Median Time (time for relative tumor volume to reach 600%) ([8]; rituximab 10 mg/kg intraperitoneally on Days 2, 9, 16): 28.4 days | Tumor growth delay [8, 12]: 12.1 days | Tumor growth delay rate [8, 12]: 74.2%
